Test results taken from patent publication US4888431A, “Process for the preparation of substituted fused tetrahydrocarbazole acetic acid derivatives” (American Home Products Corporation, priority 1989, dated 1989).

Assays:
[1] = test system: Male Sprague Dawley rats; assay: Preventative Adjuvant Edema (acute anti-inflammatory effect, hind paw edema volume); assay type: in vivo; settings: 25 mg/kg, p.o., edema volume day 0 to day 3
Protocol: This test is a primary screen for anti-inflammatory drugs.
Male Sprague Dawley rats (180-200 g) are used. The animals have free access to water but food is withdrawn 18 hours before testing.
Freund's complete adjuvant is prepared by suspending 5 mg of killed and dried Mycobacterium butyricum (Difco) in 1 ml liquid paraffin. The test compounds are dissolved in distilled water or suspended in 0.5% Tween 80 in distilled water according to their solubility. For primary screening all drugs are administered by gastric lavage at the arbitrary dosage of 25 mg/kg, p.o. in a volume of 0.5 mL/100 g body weight to groups of 10 animals.
The method is essentially that described by Wax et al, J. Pharmacol. Exp. Ther., 192, 166-171 (1975). Groups of rats are injected intradermally in the left hind paw with 0.1 mL of Freund's complete adjuvant. The test compound or vehicle is administered immediately before the adjuvant, 24 hours and 48 hours after the adjuvant (days 0, 1 and 2). The injected hind paw volume is measured before the injection of adjuvant and 24 hours after the last drug administration (day 3) by means of a plethysmometer (Buxco Electronics Inc.). The difference between the hind paw volume on day 0 and day 3 represents the edema volume. Etodolac (25 mg/kg, p.o.) is included as a positive control.
The mean edema volume (expressed as mL ±SEM) is calculated for each group and the percentage inhibition of inflammation conferred by the drug is calculated: [formula] where c is the mean edema volume for the untreated controls and t is the mean edema volume for the drug treated group.

[2] = test system: Male Swiss albino mice; assay: Drug Effects on Phenylbenzoquinone-induced Writhing in Mice; assay type: in vivo; settings: 10 mg/kg, p.o., PBQ i.p. 60 minutes after dosing, writhes counted over 15 minutes
Protocol: A further test used to determine the utility of the compounds of the present invention is designated: Drug Effects on Phenylbenzoquinone-induced Writhing in Mice
The objective of this test is to determine the ability of test drugs to inhibit the nociceptive (pain) response of mice injected with a chemical irritant. This test is a primary screen for both peripheral and centrally acting analgesic drugs.
Male Swiss albino mice (15-25 g) are used. The animals are fasted for 18 hours prior to use but have free access to water.
Drugs are dissolved or suspended according to their solubility in 0.5% Tween 80 in distilled water. They are administered by gastric gavage in a volume of 5 mL/kg. For primary screening all drugs are administered at the arbitary dosage of 25 mg/kg, p.o. to a group of 10 mice.
A modification of the method of Siegmund et al, Proc. Soc. Exp. Biol. Med., 95, 729-731 (1957) is used. Groups of 5 mice are dosed with the test compound or vehicle control. Sixty minutes later the animals are injected i.p. with 0.3 mL/20 g body weight of a 0.02% solution of phenylbenzoquinone (PBQ; 2-phenyl-1,4-benzoquinone) and placed in individual observation boxes. The number of writhing or abdominal squirming movements made by each mouse during the following 15 minute period is counted. The experiment is repeated with another group of 5 mice and the mean number of writhes per mouse for a group of 10 mice is calculated.
Drug treated and vehicle-treated control groups are compared and the percentage inhibition of writhing conferred by the drug is calculated: [formula] where c=mean number of writhes in the control group where t=mean number of writhes in the test drug group

| Compound | inhibition (Preventative Adjuvant Edema) [1] [%] | inhibition (Phenylbenzoquinone Writhing in Mice) [2] [%] |
| --- | --- | --- |
| Cc1c(Cl)ccc2c3c([nH]c12)[C@]1(CC(=O)O)CC[C@@H]1CC3Cc1ccccc1 (relative stereo) [Example 1, cis-7-Chloro-1,2,2a,3,4,9-hexahydro-8-methyl-4-(phenylmethyl)-9bH-cyclobuta[a]carbazole-9b-acetic Acid] | 26 | 73 |
| Cc1c(Cl)ccc2c3c([nH]c12)[C@@]1(CC(=O)O)CC[C@H]1CC3 (relative stereo) [Example 2, cis-7-Chloro-1,2,2a,3,4,9-hexahydro-8-methyl-9bH-cyclobuta[a]carbazole-9b-acetic Acid] | 85 | 56 |
| O=C(O)C[C@]12CC[C@H]1CCc1c2[nH]c2ccccc12 (relative stereo) [Example 4, cis-1,2,2a,3,4,9-Hexahydro-9bH-cyclobuta[a]carbazole-9b-acetic Acid] | 64 | 21 |
| CCCc1cc(C(C)=O)cc2c3c([nH]c12)[C@@]1(CC(=O)O)CC[C@H]1CC3 (relative stereo) [Example 5, cis-6-Acetyl-1,2,2a,3,4,9-hexahydro-8-propyl-9bH-cyclobuta[a]carbazole-9b-acetic Acid] |  | 56 |
| CCc1cccc2c3c([nH]c12)[C@]1(CC(=O)O)C[C@@H]1CC3 (relative stereo) [Example 6, (1a. α,8b. α)-7-Ethyl-1,1a,2,3,8,8b-hexahydrocyclopropa[a]carbazole-8b-acetic Acid] | 13 | 27 |
| O=C(O)C[C@@]12CC[C@@H]1CC(Cc1ccccc1)c1c2[nH]c2ccccc12 (relative stereo) [Example 7, cis-1,2,2a,3,4,9-Hexahydro-4-(phenylmethyl)-9bH-cyclobuta[a]carbazole-9b-acetic Acid] |  | 0 |
